# Experimental data from patent US9359338B2, “Cyclopropanecarboxamido-substitute aromatic compounds as anti-tumor agents” (Crown Bioscience Inc. (Taiwan), priority 2012, dated 2016).
# pIC50: −log10 of the molar value.
# Test system: pERK in MDA-MB-231 cells
# Test: Inhibitory activity at pERK (In Cell Western, MDA-MB-231 cells)
# Assay type: cell-based
# Conditions: Homo sapiens, MDA-MB-231, MDA-MB-231 cells; read-out: MDA-MB-231 pERK IC50
# Experimental: Inhibitory Activity of Compounds at pERK
# When the cells reach 80% confluency, collect cells by trypsinization and centrifugation at 800 rpm for 3 minutes. Resuspend cells with appropriate volume of medium and count cell numbers. Adjust cell concentration to 70000 cells/mL, and split 100 μL cell suspension per well into 96-well plates. Transfer the plates into cell culture incubator (37° C., 5% CO2) and incubate cells overnight. Discard the medium, wash with PBS once, Prepare compound serial dilutions in culture medium with total 8 compound concentrations at 3-fold serial dilutions (the final top concentration starts from 30 μM). Dispense 75 μL DMEM medium (with 0.1% BSA) and 25 μL of each test compound dilution into corresponding wells with DMSO at 0.3% final concentration. Continue incubating cells in cell culture incubator for additional 2 hrs at 37° C., 5% CO2. Discard culture medium, and wash cells once with PBS. Add 100 μL of 4% formaldehyde solution to each well and fix for 20 min. Discard the formaldehyde, then add 100 μL ice-cold 100% methanol at 4° C. for 20 min. Discard methanol, wash with PBS three times. Add to each well 100 μL of 2% BSA solution, seal for 30 min at room temperature. Discard the BSA solution, add to each well 50 μL of the 1st antibody solution (prepared with 2% BSA, 1:250 dilution), incubate at 4° C. overnight. Discard the 1^St antibody solution, wash with PBS four times. Add to each well […] the 2nd antibody solution (prepared with 1% BSA, 1:1000 dilution), incubate at room temperature for 1 hr. Discard the 2nd antibody solution, wash with PBS four times, add to each well 100 μL PI solution (1.5 μM), incubate at room temperature for 30 min. Use Acumen (TPP) to measure the fluorescence. • [Samples]: Compounds in the examples and sorafenib (positive control) • [Data Analysis]: Use CBIS data analysis software to calculate IC50 values
row,pIC50,SMILES
1,6.97,O=C(Nc1ccc(Oc2cc(NC(=O)C3CC3)ncn2)c(Cl)c1)Nc1ccc(F)c(C(F)(F)F)c1 [Exe. 088]
2,7.72,O=C(Nc1ccc(F)c(C(F)(F)F)c1)Nc1ccc(Oc2cc(NC(=O)C3CC3)ncn2)cc1Cl [Exe. 089]
3,7.38,O=C(Nc1cc(F)cc(C(F)(F)F)c1)Nc1ccc(Oc2cc(NC(=O)C3CC3)ncn2)cc1Cl [Exe. 090]
4,7.24,Cc1cc(NC(=O)Nc2ccc(F)c(C(F)(F)F)c2)cc(Oc2cc(NC(=O)C3CC3)ncn2)c1 [Exe. 092]
5,6.86,O=C(Nc1cc(F)cc(Oc2cc(NC(=O)C3CC3)ncn2)c1)Nc1ccc(F)c(C(F)(F)F)c1 [Exe. 097]
6,7.43,CC(F)(F)c1cc(NC(=O)Nc2cc(F)cc(Oc3cc(NC(=O)C4CC4)ncn3)c2)ccc1Cl [Exe. 099]
7,6.52,O=C(Nc1ccc(Oc2cc(NC(=O)C3CC3)ncn2)cc1)Nc1ccc(F)c(C(F)(F)F)c1 [Exe. 100]
8,6.17,O=C(Nc1ccc(Oc2cc(NC(=O)C3CC3)ncn2)cc1)Nc1cc(F)cc(C(F)(F)F)c1 [Exe. 101]

# More lines, now with the values behind:
row,SMILES,pIC50
1,Cc1cc(Oc2cc(NC(=O)C3CC3)ncn2)ccc1NC(=O)Nc1cccc(C(C)(F)F)c1 [Exe. 084],6.91
2,Cc1cc(Oc2cc(NC(=O)C3CC3)ncn2)ccc1NC(=O)Nc1cc(N2CCOCC2)cc(C(F)(F)F)c1 [Exe. 087],7.44
3,Cc1cc(Oc2cc(NC(=O)C3CC3)ncn2)c(F)cc1NC(=O)Nc1ccc(Cl)c(C(C)(F)F)c1 [Exe. 091],7.28
4,Cc1cc(NC(=O)Nc2cccc(C(F)(F)F)c2)cc(Oc2cc(NC(=O)C3CC3)ncn2)c1 [Exe. 094],6.79
5,Cc1cc(NC(=O)Nc2cccc(OC(F)(F)F)c2)cc(Oc2cc(NC(=O)C3CC3)ncn2)c1 [Exe. 095],7.09
6,Cc1cc(NC(=O)Nc2ccc(Cl)c(C(C)(F)F)c2)cc(Oc2cc(NC(=O)C3CC3)ncn2)c1 [Exe. 096],7.55
7,O=C(Nc1cc(F)cc(Oc2cc(NC(=O)C3CC3)ncn2)c1)Nc1cc(F)cc(C(F)(F)F)c1 [Exe. 098],6.12
8,O=C(Nc1cccc(C(F)(F)F)c1)Nc1ccc(Oc2cc(NC(=O)C3CC3)ncn2)c(F)c1 [Exe. 102],6.53

# Same assay, conditions: Homo sapiens, MDA-MB-231, read-out: MDA-MB-231 pERK IC50
row,SMILES,pIC50
1,Cc1cc(Oc2cc(NC(=O)C3CC3)ncn2)ccc1NC(=O)Nc1ccc(C#N)c(Cl)c1 [Exe. 086],6.65

# Test system: PLC-PRF-5 cells
# Test: Inhibition of proliferation of PLC-PRF-5 cells (ATPlite)
# Assay type: cell-based
# Conditions: Homo sapiens, PLC-PRF-5, PLC-PRF-5 cells; read-out: PLC-PRF-5 cell proliferation IC50
# Description: Inhibitory Activity of Compounds to the Proliferation of PLC-PRF-5 Cells
# • [experimental Method]: Use PerKinElmer's ATPlite™ Luminescence ATP Detection Assay System to evaluate the inhibitory activity of compounds to the proliferation of PLC-PRF-5 cells. • [Instruments]: ENVISION plate reader (PerKinElmer) and centrifuge (Thermo Scientific, Sorvall ST16R) • [material]: PLC-PRF-5 cells (ATCC), 96-well plate (Nunc, #165305), DMEM medium (Gibco, #11965-092), PBS (Invitrogen, #10010023), fetal bovine serum (Gibco, #16000044), DMSO (Sigma, #D2650), ATPlite™ Luminescence ATP Detection Assay System (PerkinElmer, #6016949), purified water (Millipore, type: Milli-Q). • [Protocol]: Grow PLC-PRF-5 cells in DMEM supplemented with 10% FBS. When the cells reach 80% confluency, collect cells by trypsinization and centrifugation at 800 rpm for 3 min. Resuspend cells with appropriate volume of medium and count cell numbers. Adjust cell concentration to 50000 cells/mL, and split 160 μL cell suspension per well into 96-well plates. Transfer the plates into cell culture incubator (37° C., 5% CO2) and incubate cells for 2 hrs. Prepare compound serial dilutions in culture medium with total 8 compound concentrations at 3-fold serial dilutions (the final top concentration starts from 30 μM). Dispense 40 μL of each test compound dilution into corresponding wells with DMSO at 0.3% final concentration. Continue incubating cells in cell culture incubator for additional 96 hrs at 37° C., 5% CO2. Discard culture medium, and wash cells once with PBS. Add 50 μL cell lysis buffer per well and shake plates for 5 min at room temperature to ensure complete lysis of cells. Then add 50 μL of substrate solution and shake plates for 1 min at room temperature. Allow the plates to incubate at room temperature for 5 min, followed by recording the luminescence signals using Envision, and subsequent data analysis. • [Samples]: Compounds in the examples and Sorafenib (positive control) • [Data analysis]: Use CBIS data analysis software to calculate IC50 values
row,SMILES,pIC50
1,Cc1cc(Oc2cc(NC(=O)C3CC3)ncn2)ccc1NC(=O)Nc1cccc(C(C)(F)F)c1 [Exe. 084],5.23
2,Cc1cc(Oc2cc(NC(=O)C3CC3)ncn2)ccc1NC(=O)Nc1cc(N2CCOCC2)cc(C(F)(F)F)c1 [Exe. 087],5.30
3,O=C(Nc1ccc(Oc2cc(NC(=O)C3CC3)ncn2)c(Cl)c1)Nc1ccc(F)c(C(F)(F)F)c1 [Exe. 088],5.69
4,O=C(Nc1ccc(F)c(C(F)(F)F)c1)Nc1ccc(Oc2cc(NC(=O)C3CC3)ncn2)cc1Cl [Exe. 089],5.16
5,O=C(Nc1cc(F)cc(C(F)(F)F)c1)Nc1ccc(Oc2cc(NC(=O)C3CC3)ncn2)cc1Cl [Exe. 090],5.55
6,Cc1cc(Oc2cc(NC(=O)C3CC3)ncn2)c(F)cc1NC(=O)Nc1ccc(Cl)c(C(C)(F)F)c1 [Exe. 091],5.12
7,Cc1cc(NC(=O)Nc2ccc(F)c(C(F)(F)F)c2)cc(Oc2cc(NC(=O)C3CC3)ncn2)c1 [Exe. 092],4.76
8,Cc1cc(NC(=O)Nc2cccc(C(F)(F)F)c2)cc(Oc2cc(NC(=O)C3CC3)ncn2)c1 [Exe. 094],4.72
9,Cc1cc(NC(=O)Nc2cccc(OC(F)(F)F)c2)cc(Oc2cc(NC(=O)C3CC3)ncn2)c1 [Exe. 095],4.72
10,Cc1cc(NC(=O)Nc2ccc(Cl)c(C(C)(F)F)c2)cc(Oc2cc(NC(=O)C3CC3)ncn2)c1 [Exe. 096],4.68
11,O=C(Nc1cc(F)cc(Oc2cc(NC(=O)C3CC3)ncn2)c1)Nc1ccc(F)c(C(F)(F)F)c1 [Exe. 097],5.04
12,O=C(Nc1cc(F)cc(Oc2cc(NC(=O)C3CC3)ncn2)c1)Nc1cc(F)cc(C(F)(F)F)c1 [Exe. 098],5.08
13,CC(F)(F)c1cc(NC(=O)Nc2cc(F)cc(Oc3cc(NC(=O)C4CC4)ncn3)c2)ccc1Cl [Exe. 099],4.82
14,O=C(Nc1ccc(Oc2cc(NC(=O)C3CC3)ncn2)cc1)Nc1ccc(F)c(C(F)(F)F)c1 [Exe. 100],5.62
15,O=C(Nc1ccc(Oc2cc(NC(=O)C3CC3)ncn2)cc1)Nc1cc(F)cc(C(F)(F)F)c1 [Exe. 101],5.59
16,O=C(Nc1cccc(C(F)(F)F)c1)Nc1ccc(Oc2cc(NC(=O)C3CC3)ncn2)c(F)c1 [Exe. 102],6.03

# Same assay, conditions: Homo sapiens, PLC-PRF-5, read-out: PLC-PRF-5 cell proliferation IC50
row,SMILES,pIC50
1,Cc1cc(Oc2cc(NC(=O)C3CC3)ncn2)ccc1NC(=O)Nc1ccc(C#N)c(Cl)c1 [Exe. 086],4.71

# Molecular target: KDR kinase (790-1356 AA) (Homo sapiens (Human), UniProt P35968)
# Sequence (P35968 790-1356): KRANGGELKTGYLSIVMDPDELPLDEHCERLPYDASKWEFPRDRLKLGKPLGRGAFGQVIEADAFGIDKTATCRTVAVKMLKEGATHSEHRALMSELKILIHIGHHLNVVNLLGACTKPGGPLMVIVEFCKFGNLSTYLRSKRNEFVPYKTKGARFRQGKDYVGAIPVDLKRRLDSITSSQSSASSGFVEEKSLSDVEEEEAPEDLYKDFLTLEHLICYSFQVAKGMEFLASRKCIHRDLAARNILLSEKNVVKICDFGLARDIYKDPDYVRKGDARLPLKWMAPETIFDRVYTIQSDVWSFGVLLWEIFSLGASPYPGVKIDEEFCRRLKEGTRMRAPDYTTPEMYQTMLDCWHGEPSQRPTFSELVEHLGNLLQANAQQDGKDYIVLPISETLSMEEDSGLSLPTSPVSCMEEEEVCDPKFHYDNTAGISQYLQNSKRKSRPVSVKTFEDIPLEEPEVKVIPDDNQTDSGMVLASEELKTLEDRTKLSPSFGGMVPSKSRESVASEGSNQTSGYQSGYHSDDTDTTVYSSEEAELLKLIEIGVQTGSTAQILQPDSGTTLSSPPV
# Test: Inhibitory activity at KDR kinase (Lance Ultra Ulight-TK assay)
# Assay type: biochemical
# Conditions: not given
# Experimental: Inhibitory Activity of Compounds at KDR Kinase
# • [Experimental method]: Use Lance@Ultra Ulight™-TK assay kit from PerKinElmer to evaluate the inhibitory activity of compounds at KDR kinase. • [Instrument]: PerKinElmer's ENVISION plate reader • [Materials]: Optiplate-384 well plate (PerKinElmer), kinase buffer (50 mM Hepes pH7.5, 0.25 mM EGTA, 2 mM DTT, 0.01% Tween 20, 10 mM Mg^2+, 0.5 mM Mn^2+), KDR kinase (790-1356 AA, Crown Bioscience), KDR kinase substrate (PerKinElmer catalogue # TRF0127-M), Lance@Eu-W1024-anti-phosphotyrosine (PT66) (PerKinElmer, catalogue #AD0068), ATP (Invitrogen), DMSO (Sigma, catalogue #34869), purified water (Millipore, type: Milli-Q). • [Study conditions]: Mix KDR (final concentration: 20 nM) and compound (final DMSO: 0.5%), pre-incubate for 20 min at 30° C.; then add ATP (final concentration: 90 μM) and the substrate (final concentration […]). React for 2 hrs at 30° C. After the reaction, add antibody and reaction for 60 min at 30° C. Read the plate (615 nm, 665 nm), calculate the ratio of the value at 665 nm vs 615 nm and analyze the data. • [Samples]: Compounds in the examples and Sorafenib (positive control) • [Data Analysis]: Use CBIS data analysis software to calculate IC50 values
row,pIC50,SMILES
1,7.94,O=C(Nc1ccc(Oc2cc(NC(=O)C3CC3)ncn2)c(Cl)c1)Nc1ccc(F)c(C(F)(F)F)c1 [Exe. 088]
2,7.82,O=C(Nc1ccc(F)c(C(F)(F)F)c1)Nc1ccc(Oc2cc(NC(=O)C3CC3)ncn2)cc1Cl [Exe. 089]
3,7.91,O=C(Nc1cc(F)cc(C(F)(F)F)c1)Nc1ccc(Oc2cc(NC(=O)C3CC3)ncn2)cc1Cl [Exe. 090]
4,6.72,Cc1cc(NC(=O)Nc2ccc(F)c(C(F)(F)F)c2)cc(Oc2cc(NC(=O)C3CC3)ncn2)c1 [Exe. 092]
5,7.20,O=C(Nc1cc(F)cc(Oc2cc(NC(=O)C3CC3)ncn2)c1)Nc1ccc(F)c(C(F)(F)F)c1 [Exe. 097]
6,7.39,CC(F)(F)c1cc(NC(=O)Nc2cc(F)cc(Oc3cc(NC(=O)C4CC4)ncn3)c2)ccc1Cl [Exe. 099]
7,8.05,O=C(Nc1ccc(Oc2cc(NC(=O)C3CC3)ncn2)cc1)Nc1ccc(F)c(C(F)(F)F)c1 [Exe. 100]
8,7.90,O=C(Nc1ccc(Oc2cc(NC(=O)C3CC3)ncn2)cc1)Nc1cc(F)cc(C(F)(F)F)c1 [Exe. 101]

# Further lines, the molecule ahead of its results:
row,SMILES,pIC50
1,Cc1cc(Oc2cc(NC(=O)C3CC3)ncn2)ccc1NC(=O)Nc1cccc(C(C)(F)F)c1 [Exe. 084],7.91
2,Cc1cc(Oc2cc(NC(=O)C3CC3)ncn2)ccc1NC(=O)Nc1ccc(C#N)c(Cl)c1 [Exe. 086],8.08
3,Cc1cc(Oc2cc(NC(=O)C3CC3)ncn2)ccc1NC(=O)Nc1cc(N2CCOCC2)cc(C(F)(F)F)c1 [Exe. 087],7.89
4,Cc1cc(Oc2cc(NC(=O)C3CC3)ncn2)c(F)cc1NC(=O)Nc1ccc(Cl)c(C(C)(F)F)c1 [Exe. 091],7.89
5,Cc1cc(NC(=O)Nc2cccc(C(F)(F)F)c2)cc(Oc2cc(NC(=O)C3CC3)ncn2)c1 [Exe. 094],6.70
6,Cc1cc(NC(=O)Nc2cccc(OC(F)(F)F)c2)cc(Oc2cc(NC(=O)C3CC3)ncn2)c1 [Exe. 095],6.36
7,Cc1cc(NC(=O)Nc2ccc(Cl)c(C(C)(F)F)c2)cc(Oc2cc(NC(=O)C3CC3)ncn2)c1 [Exe. 096],6.20
8,O=C(Nc1cc(F)cc(Oc2cc(NC(=O)C3CC3)ncn2)c1)Nc1cc(F)cc(C(F)(F)F)c1 [Exe. 098],6.98
9,O=C(Nc1cccc(C(F)(F)F)c1)Nc1ccc(Oc2cc(NC(=O)C3CC3)ncn2)c(F)c1 [Exe. 102],7.82
